Assay results reported in article PMC11192711, “Automated radiosynthesis and preclinical evaluation of two new PSMA-617 derivatives radiolabelled via [^18F]AlF^2+ method” (EJNMMI Radiopharmacy and Chemistry, 2024).

What was measured:
[1] = Stability in human plasma (HPLC, radio-TLC, pellet/supernatant activity); assay type: in vitro ADME; details: for Stability in human plasma: 37 °C, up to 4 h, HPLC and radio-TLC; for Pellet activity / Supernatant activity: ACN precipitation
Procedure: Stability in plasma was evaluated mixing aliquots of [^18F]1 or [^18F]2 solutions (10 MBq for 2 h incubation and 20 MBq for 4 h incubation samples) with 200 µL of human serum. The mixtures were incubated at 37 °C. Aliquots were taken at 2 h and 4 h. Plasma pellet was precipitated with 200 µL acetonitrile and centrifuged (13,500 rpm, 10 min). The supernatant was removed, and the activity of the supernatant solution and pellet was measured using a dose calibrator (VIK-202 Comecer). The supernatant solution was analyzed injecting in RP-HPLC (diluted 1:5 in water) and Radio-TLC as above described.

[2] = Stability in final solution (analytical HPLC and radio-TLC); assay type: physicochemical; details: up to four hours after end of radiosynthesis, room temperature, HPLC and radio-TLC
Procedure: Chemical and radiochemical stability in the final solution were tested by analytical HPLC and radio-TLC (Additional file 1: S37–S41); samples of the purified product were analyzed up to four hours after the end of radiosynthesis, at time intervals of two hours and storing the vial at room temperature.
Stability in solution of [^18F]F-PSMA-617-NODA ([^18F]1) and [^18F]F-PSMA-617-RESCA ([^18F]2) were evaluated injecting in RP-HPLC (for experimental conditions, see sections “(((S)-5-((S)-2-((1R,4S)-4-((4-(4,7-bis(carboxymethyl)-1,4,7-triazonan-1-yl)butanamido)methyl)cyclohexane-1-carboxamido)-3-(naphthalen-2-yl)propanamido)-1-carboxypentyl)carbamoyl)-L-glutamic acid [^18F] aluminium fluoride ([^18F] 1)” and “(((S)-5-((S)-2-((1R,4S)-4-((2-(4-((((1R,2R)-2-(bis(carboxymethyl)amino)cyclohexyl)(carboxymethyl)amino)methyl)phenyl)acetamido)methyl)cyclohexane-1-carboxamido)-3-(naphthalen-2-yl)propanamido)-1-carboxypentyl)carbamoyl)-L-glutamic acid [18F] aluminium fluoride ([18F] 2)”) samples (20 µl) of respective radiopharmaceutical solutions at t = 0 (EOS), after 2 h and after 4 h. Moreover, ≈ 7.5 kBq of [^18F]1 or [^18F]2 solution were deposited on TLC sheet. The TLC was imaged using Cyclone® Plus Phosphor Scanner and software OptiQuant™.

[3] = [18F]1, 2 h incubation in plasma, total activity incubated 3.6 MBq
[4] = [18F]1, 4 h incubation in plasma, total activity incubated 3.89 MBq

O=C(O)CCC(NC(=O)NC(CCCCNC(=O)C(Cc1ccc2ccccc2c1)NC(=O)C1CCC(CNC(=O)CCCN2CCN(CC(=O)O)CCN(CC(=O)O)CC2)CC1)C(=O)O)C(=O)O.[18F][Al] [[^18F]F-PSMA-617-NODA, (((S)-5-((S)-2-((1R,4S)-4-((4-(4,7-bis(carboxymethyl)-1,4,7-triazonan-1-yl)butanamido)methyl)cyclohexane-1-carboxamido)-3-(naphthalen-2-yl)propanamido)-1-carboxypentyl)carbamoyl)-L-glutamic acid [^18F] aluminium fluoride]
Stability in human plasma ([1]; listed as [^18F]1): stable
Stability in human plasma ([1]; listed as [^18F]PSMA-617-NODA): no substantial release of [^18F]AlF^2+
Pellet activity [1, 3]: 0.4 MBq
Supernatant activity [1, 3]: 3.2 MBq
Pellet activity [1, 4]: 0.45 MBq
Supernatant activity [1, 4]: 3.44 MBq
protein uptake ([1]; stability tests in human plasma): ~ 11%
Chemical and radiochemical stability in the final solution ([2]; listed as [^18F]1): stable and no loss of radioactivity due to radiolytic degradation and aluminum fluoride release were detected
Chemical and radiochemical stability in the final solution ([2]; listed as [^18F]PSMA-617-NODA): neither the release of [^18F]AlF^2+ in solution, nor the formation of other degradation by-products was noticed
